Results published in ChEMBL document CHEMBL5465560, “Selectivity Literature for EUbOPEN Chemogenomic Library” (2024).
One block for each compound: values may come before it.

Assays:
[1] = molecular target: T1, Histone-lysine N-methyltransferase EHMT1 (Homo sapiens) (UniProt Q9H9B1); assay: Selectivity interaction (Methyltransferase screen (radiometric assays, panel of 8 PRMTs, 21 protein lysine methyltransferases, 3 DNA methyltransferases, and one RNA methyltransferase)) EUB0000272b EHMT1
T1 sequence (whole entry): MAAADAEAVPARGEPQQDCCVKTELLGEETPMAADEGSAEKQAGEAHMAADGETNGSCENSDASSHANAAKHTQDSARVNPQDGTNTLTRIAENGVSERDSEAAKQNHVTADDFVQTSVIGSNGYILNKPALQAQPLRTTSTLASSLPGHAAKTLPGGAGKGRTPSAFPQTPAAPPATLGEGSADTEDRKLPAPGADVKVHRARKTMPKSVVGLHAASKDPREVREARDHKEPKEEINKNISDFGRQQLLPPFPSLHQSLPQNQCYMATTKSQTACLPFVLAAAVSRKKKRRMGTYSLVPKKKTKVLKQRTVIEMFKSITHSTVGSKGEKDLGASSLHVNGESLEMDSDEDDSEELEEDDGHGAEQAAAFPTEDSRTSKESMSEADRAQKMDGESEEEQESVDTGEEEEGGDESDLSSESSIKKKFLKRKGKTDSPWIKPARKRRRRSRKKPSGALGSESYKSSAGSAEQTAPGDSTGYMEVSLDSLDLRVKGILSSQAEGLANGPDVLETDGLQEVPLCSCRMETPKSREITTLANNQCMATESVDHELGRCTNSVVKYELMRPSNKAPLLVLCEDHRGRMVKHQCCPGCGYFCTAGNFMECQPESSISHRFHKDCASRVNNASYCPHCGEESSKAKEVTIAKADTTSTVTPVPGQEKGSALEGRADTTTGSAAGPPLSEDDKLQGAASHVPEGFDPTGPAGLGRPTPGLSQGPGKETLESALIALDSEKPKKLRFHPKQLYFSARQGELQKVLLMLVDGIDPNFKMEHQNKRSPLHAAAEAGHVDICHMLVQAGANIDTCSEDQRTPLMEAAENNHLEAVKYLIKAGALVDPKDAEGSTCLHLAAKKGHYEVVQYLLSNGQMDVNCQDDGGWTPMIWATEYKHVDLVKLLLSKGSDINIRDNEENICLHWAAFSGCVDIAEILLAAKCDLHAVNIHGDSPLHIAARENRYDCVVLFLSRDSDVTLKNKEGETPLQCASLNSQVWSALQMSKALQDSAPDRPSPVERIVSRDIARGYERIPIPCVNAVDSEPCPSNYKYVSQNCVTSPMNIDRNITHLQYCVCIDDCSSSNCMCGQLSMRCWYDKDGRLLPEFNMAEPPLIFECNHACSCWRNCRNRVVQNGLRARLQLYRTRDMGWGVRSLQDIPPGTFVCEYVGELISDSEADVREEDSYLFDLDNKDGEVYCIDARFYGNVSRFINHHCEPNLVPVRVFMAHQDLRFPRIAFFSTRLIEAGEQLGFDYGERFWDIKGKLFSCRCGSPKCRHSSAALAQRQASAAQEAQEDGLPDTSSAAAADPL

[2] = molecular target: Ribosomal protein S6 kinase beta-1 (Homo sapiens, UniProt P23443); assay: Selectivity interaction (KinomeScan (DiscoverX)) EUB0000618a RPS6KB1; details: at 10 µM
Sequence of Ribosomal protein S6 kinase beta-1 (P23443 whole entry, looked up): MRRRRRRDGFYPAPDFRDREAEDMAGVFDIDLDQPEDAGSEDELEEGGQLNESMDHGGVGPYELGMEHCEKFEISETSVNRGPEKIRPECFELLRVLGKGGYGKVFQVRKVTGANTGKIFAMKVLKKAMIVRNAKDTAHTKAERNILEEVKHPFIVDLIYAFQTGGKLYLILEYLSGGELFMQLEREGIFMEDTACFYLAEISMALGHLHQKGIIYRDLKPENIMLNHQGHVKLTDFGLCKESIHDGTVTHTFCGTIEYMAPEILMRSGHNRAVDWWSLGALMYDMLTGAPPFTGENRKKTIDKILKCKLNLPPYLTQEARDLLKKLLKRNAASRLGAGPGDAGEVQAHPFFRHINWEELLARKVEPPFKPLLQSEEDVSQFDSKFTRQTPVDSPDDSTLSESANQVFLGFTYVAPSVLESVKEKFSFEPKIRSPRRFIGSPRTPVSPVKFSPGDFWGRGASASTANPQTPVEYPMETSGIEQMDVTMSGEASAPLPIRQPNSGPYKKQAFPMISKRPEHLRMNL

[3] = molecular target: Serine/threonine-protein kinase/endoribonuclease IRE1 (Homo sapiens) (UniProt O75460); assay: Selectivity interaction (ActivX KiNativ screen (ex vivo kinase selectivity in human PBMCs)) EUB0001619a ERN1; format: cell-based; details: PBMC, at 1 µM
Sequence of Serine/threonine-protein kinase/endoribonuclease IRE1 (Homo sapiens) (O75460 19-977 limits assumed): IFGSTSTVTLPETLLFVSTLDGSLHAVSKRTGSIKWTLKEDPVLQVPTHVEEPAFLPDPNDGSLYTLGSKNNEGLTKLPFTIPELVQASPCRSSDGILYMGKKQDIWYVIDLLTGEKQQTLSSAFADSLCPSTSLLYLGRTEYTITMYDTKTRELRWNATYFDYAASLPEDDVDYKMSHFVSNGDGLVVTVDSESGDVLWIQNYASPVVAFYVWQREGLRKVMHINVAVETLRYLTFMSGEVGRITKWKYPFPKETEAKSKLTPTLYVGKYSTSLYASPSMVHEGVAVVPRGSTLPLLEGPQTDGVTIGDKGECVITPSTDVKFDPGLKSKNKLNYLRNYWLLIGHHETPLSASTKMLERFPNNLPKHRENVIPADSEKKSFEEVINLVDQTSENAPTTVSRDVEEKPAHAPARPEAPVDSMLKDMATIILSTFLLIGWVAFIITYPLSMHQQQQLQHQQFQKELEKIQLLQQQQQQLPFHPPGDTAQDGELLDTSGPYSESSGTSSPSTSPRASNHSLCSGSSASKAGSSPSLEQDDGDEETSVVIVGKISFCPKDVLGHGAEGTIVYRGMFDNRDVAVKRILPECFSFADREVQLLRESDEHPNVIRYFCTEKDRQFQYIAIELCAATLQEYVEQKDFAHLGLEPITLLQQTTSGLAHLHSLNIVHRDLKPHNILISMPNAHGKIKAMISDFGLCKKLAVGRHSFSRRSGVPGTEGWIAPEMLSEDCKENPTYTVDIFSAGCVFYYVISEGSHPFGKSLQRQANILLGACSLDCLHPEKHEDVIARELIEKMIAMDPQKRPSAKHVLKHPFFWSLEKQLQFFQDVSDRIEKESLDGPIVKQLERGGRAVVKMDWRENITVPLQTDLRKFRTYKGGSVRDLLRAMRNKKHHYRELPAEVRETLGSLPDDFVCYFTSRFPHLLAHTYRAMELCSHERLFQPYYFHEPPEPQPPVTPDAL

[4] = molecular target: T2, Mitogen-activated protein kinase kinase kinase 3 (Homo sapiens) (UniProt Q99759); assay: Selectivity interaction (ActivX KiNativ screen (ex vivo kinase selectivity in human PBMCs)) EUB0001619a MAP3K3; format: cell-based; details: PBMC, at 1 µM
T2 sequence (whole entry): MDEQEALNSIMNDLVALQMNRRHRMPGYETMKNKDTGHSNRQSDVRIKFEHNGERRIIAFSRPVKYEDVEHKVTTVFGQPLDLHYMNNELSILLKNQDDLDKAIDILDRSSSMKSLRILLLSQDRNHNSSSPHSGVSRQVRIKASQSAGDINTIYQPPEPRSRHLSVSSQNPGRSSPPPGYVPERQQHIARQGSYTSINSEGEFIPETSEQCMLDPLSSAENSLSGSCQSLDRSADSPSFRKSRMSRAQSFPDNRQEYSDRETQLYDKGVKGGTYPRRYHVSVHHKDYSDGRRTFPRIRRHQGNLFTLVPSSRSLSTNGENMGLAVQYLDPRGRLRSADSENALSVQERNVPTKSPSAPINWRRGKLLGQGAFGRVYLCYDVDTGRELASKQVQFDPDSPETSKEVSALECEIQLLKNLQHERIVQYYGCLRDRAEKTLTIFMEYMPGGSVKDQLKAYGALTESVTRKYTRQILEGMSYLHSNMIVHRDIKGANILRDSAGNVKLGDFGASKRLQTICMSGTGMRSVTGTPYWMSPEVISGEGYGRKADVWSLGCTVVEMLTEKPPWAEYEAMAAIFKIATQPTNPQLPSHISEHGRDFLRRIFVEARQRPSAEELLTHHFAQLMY

[5] = molecular target: Dual specificity mitogen-activated protein kinase kinase 1 (Homo sapiens, UniProt Q02750); assay: Selectivity interaction (ActivX KiNativ screen (kinase selectivity in THP-1 cell lysates)) EUB0000639a MAP2K1; format: subcellular; details: lysate, at 0.01 µM
Sequence of Dual specificity mitogen-activated protein kinase kinase 1 (Q02750 whole entry): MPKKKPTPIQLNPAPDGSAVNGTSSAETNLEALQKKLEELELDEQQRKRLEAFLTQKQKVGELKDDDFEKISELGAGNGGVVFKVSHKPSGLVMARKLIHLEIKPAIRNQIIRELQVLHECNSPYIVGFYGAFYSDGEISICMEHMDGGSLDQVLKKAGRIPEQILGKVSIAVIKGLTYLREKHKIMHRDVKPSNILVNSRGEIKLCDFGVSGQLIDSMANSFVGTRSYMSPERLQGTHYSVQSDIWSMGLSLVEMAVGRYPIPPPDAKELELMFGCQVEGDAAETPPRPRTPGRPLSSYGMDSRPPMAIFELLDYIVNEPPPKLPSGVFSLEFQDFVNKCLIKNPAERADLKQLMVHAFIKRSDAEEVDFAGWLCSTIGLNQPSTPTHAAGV

[6] = molecular target: Dual specificity protein kinase CLK4 (Homo sapiens, UniProt Q9HAZ1); assay: Selectivity interaction (KinomeScan (DiscoverX)) EUB0001550a CLK4; details: at 1 µM
Sequence of Dual specificity protein kinase CLK4 (Q9HAZ1 whole entry, looked up): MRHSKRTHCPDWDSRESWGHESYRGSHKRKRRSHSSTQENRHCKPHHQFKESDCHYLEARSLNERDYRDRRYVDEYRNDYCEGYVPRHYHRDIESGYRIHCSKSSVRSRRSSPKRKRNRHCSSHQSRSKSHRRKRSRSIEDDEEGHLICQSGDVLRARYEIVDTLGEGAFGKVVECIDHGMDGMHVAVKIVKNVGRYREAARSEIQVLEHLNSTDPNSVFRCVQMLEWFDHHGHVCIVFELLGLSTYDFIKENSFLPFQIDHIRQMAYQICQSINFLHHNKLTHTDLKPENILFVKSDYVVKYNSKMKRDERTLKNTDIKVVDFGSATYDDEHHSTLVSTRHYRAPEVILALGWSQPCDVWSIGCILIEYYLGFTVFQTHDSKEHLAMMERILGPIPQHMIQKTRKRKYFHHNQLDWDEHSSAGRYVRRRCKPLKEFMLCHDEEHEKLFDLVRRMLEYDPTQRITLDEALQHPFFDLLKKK

[7] = molecular target: T3, Homeodomain-interacting protein kinase 4 (Homo sapiens) (UniProt Q8NE63); assay: Selectivity interaction (Kinase panel (Z-LYTE Assay)) EUB0001632a HIPK4; details: at 10 µM
T3 sequence (whole entry): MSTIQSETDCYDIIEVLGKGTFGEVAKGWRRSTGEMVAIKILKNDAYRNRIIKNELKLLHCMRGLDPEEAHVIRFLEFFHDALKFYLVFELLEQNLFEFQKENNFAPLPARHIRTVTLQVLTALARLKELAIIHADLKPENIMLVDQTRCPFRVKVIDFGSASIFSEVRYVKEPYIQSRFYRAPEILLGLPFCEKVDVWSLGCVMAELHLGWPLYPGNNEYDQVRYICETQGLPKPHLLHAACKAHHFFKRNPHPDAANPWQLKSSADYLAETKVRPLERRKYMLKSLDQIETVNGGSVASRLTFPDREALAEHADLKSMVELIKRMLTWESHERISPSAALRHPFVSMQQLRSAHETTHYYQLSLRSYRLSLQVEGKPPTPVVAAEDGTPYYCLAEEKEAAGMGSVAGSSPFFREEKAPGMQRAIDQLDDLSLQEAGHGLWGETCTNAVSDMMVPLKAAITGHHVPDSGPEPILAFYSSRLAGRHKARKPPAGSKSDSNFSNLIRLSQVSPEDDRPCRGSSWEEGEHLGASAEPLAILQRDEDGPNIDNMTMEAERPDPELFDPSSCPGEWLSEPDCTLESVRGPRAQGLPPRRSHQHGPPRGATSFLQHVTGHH

Compound: Cc1cc(C)cc([C@H]2c3cc(C)ccc3NC(=O)CN2C(=O)c2ccc(Br)s2)c1
% of activity ([1]; at 1 µM): 98%
% of activity ([1]; at 10 µM): 101%

Compound: O[C@H]1CC[C@H](Nc2ncc3nc(Nc4c(F)cc(F)cc4F)n([C@H]4CCOC4)c3n2)CC1
% of control [2]: 80%

Compound: N#Cc1cccc(-c2c[nH]c3ncnc(N4CCOCC4)c23)c1
% of inhibition [3]: 2%
% of inhibition [4]: 13%

Compound: CC[C@@H]1[C@H](F)C(=O)N[C@@H]1COc1nccc2cc(C(N)=O)c(OC)cc12 [ZIMLOVISERTIB]
% of inhibition [5]: -1.6%

The remaining lines, values ahead:

% of control [6]: 34%
Compound: CN(C)CC#Cc1ccc2[nH]c3c(c2c1)-c1nc(N)ncc1CCC3

% of control [7]: 6.45%
Compound: Cn1cc(-n2cnc3c(NCc4nc5cc(Cl)c(Cl)cc5[nH]4)nc(N4CCOCC4)nc32)cn1
